Experimental data: patent US20060229322A1, “Anhydrous crystalline form of valacyclovir hydrochloride” (priority 2002, published 2006)
Counter-ions that a name gives are not always drawn.

How the values were obtained:
[1] = Storage stability of the anhydrous crystalline form at room temperature; type: physicochemical
Description: (§1) Such stability is vital for a pharmaceutical since stocks thereof may be stored for long periods prior to use. […] The forms of the invention are therefore suitable for transport in countries where ambient temperatures are exceptionally high.

[2] = type: physicochemical
Description: as §1

time shown to be stable [1]: over 3 years | time for which stability is exhibited when heated [2]: over 550 hours
Compound: CC(C)[C@H](N)C(=O)OCCOCn1cnc2c(=O)[nH]c(N)nc21 [valacyclovir hydrochloride]
